The nature of one data set: physchem. The conditions noted are these: for solubility at 72 h: 25 °C, thermodynamic from solid, Solubility (mg/mL). The method, then: (§1) Amber vials were used to protect the samples from light. To ensure reliability, all of the experiments were performed in triplicate. The samples were shaken in a biological orbital shaker at 100 rpm for 72 h at 25 °C.
(§2) The column used for the quantification was a C18 Phenomenex Luna ([…] × 5 μm).

The nature of data set [1]: Solubility of hydroxycinnamic acids in pure solvents (orbital shaker 72 h, HPLC). In kind it is physicochemical. The conditions noted are these: for Increase of solubility in EGMME with respect to 101: EGMME vs 101; for solubility at 72 h: organic solvent or mixture, thermodynamic from solid. The protocol:
as §1
Before the samples were measured, they must be sonicated to avoid the formation of dimers and ensure the uniformity of the peaks.
as §2
Calibration curves were generated using solutions varying in the concentrations of the three studied acids within the HPLC detection range (0–0.006 mg). These solutions were sonicated to ensure uniformity of the peaks and then injected into the HPLC. The linearity of the curves was evaluated by linear regression analysis. Details of the calibrations are gathered in the Supporting Information (Figures S27–S29).
Following this period, the solution was checked for saturation and filtered. The filtered solution was then immediately diluted for hydroxycinnamic acid quantification by HPLC.

For data set [2] the following is noted: comparison solvents; cited from earlier work.
Setting [3] is: pure 1,3-propylene glycol (PG), 25 °C, solvent PG (1,3-propylene glycol), 298 K, read-out: Solubility.
[4] abbreviates: pure ethylene glycol (EG), 25 °C, solvent EG (ethylene glycol), 298 K, read-out: Solubility.
Setting [5] is: pure solvent 3F00, 25 °C, solvent 3F00, Tables S-1 to S-3, read-out: Solubility.
The mark [6] stands for this setting: pure solvent 3i00, 25 °C, solvent 3i00, Tables S-1 to S-3, read-out: Solubility.
[7] abbreviates: pure solvent 3i03i, 25 °C, solvent 3i03i, 298 K, read-out: Solubility.
Setting [8] is: pure solvent 100, 25 °C, solvent 100, Tables S-1 to S-3, read-out: Solubility.
Where [9] appears, read: pure solvent 101, 25 °C, solvent 101, Tables S-1 to S-3, read-out: Solubility.
Setting [10] is: pure solvent 111, 25 °C, solvent 111, Tables S-1 to S-3, read-out: Solubility.
Where [11] appears, read: pure solvent 111 triether, 25 °C, solvent 111 triether, 298 K, read-out: Solubility.
Setting [12] is: pure solvent 200, 25 °C, solvent 200, Tables S-1 to S-3, read-out: Solubility.
Where [13] appears, read: pure solvent 202, 25 °C, solvent 202, 298 K, read-out: Solubility.
The mark [14] stands for this setting: pure solvent 202, 25 °C, solvent 202, Tables S-1 to S-3, read-out: Solubility.
[15] abbreviates: pure solvent 300, 25 °C, solvent 300, Tables S-1 to S-3, read-out: Solubility.
Setting [16] is: pure solvent 400, 25 °C, solvent 400, Tables S-1 to S-3, read-out: Solubility.
Where [17] appears, read: pure solvent 400, 25 °C, solvent 400, Tables S-13 to S-15, read-out: Experimental solubility.
[18] abbreviates: pure solvent 404, 25 °C, solvent 404, Tables S-1 to S-3, read-out: Solubility.
[19] abbreviates: pure solvent EG, 25 °C, solvent EG, Tables S-1 to S-3, read-out: Solubility.
Where [20] appears, read: pure solvent EGDME, 25 °C, solvent EGDME, Tables S-1 to S-3, read-out: Solubility.
[21] abbreviates: pure solvent EGMME, 25 °C, solvent EGMME, Tables S-1 to S-3, read-out: Solubility.
Setting [22] is: pure solvent PG, 25 °C, solvent PG, Tables S-1 to S-3, read-out: Solubility.

Values after ≈ are worked out from the molar mass of the structure shown.

As a reminder, the solubility is how much of the substance goes into solution per volume. With `O=C(O)/C=C/c1ccc(O)c(O)c1` [Caffeic acid], the solubility at 72 h turned out to be 85 mg/mL (≈ 472 mM) in “physchem”; 0.8 mg/mL (≈ 4.44 mM) in “physchem” (water); 36.5 mg/mL (≈ 203 mM) in data set [1] (setting [3]); 55.8 mg/mL (≈ 310 mM) in data set [1] (setting [4]); 32.5 mg/mL (≈ 180 mM) in data set [1] (pure ethylene glycol dimethyl ether (EGDME), 25 °C, solvent EGDME (ethylene glycol dimethyl ether), 298 K, read-out: Solubility); 5.5 mg/mL (≈ 30.5 mM) in data set [1] (setting [5]). Also, the solubility at 72 h in data set [1] (setting [6]) is 45.8 mg/mL (≈ 254 mM); in data set [1] (setting [7]), 25.2 mg/mL (≈ 140 mM); in data set [1] (pure solvent 3i03i, 25 °C, solvent 3i03i, Tables S-1 to S-3, read-out: Solubility) it was 25.1 mg/mL (≈ 139 mM); in data set [1] (setting [8]), 75.7 mg/mL (≈ 420 mM); in data set [1] (setting [9]), 81.1 mg/mL (≈ 450 mM); in data set [1] (setting [10]), 32.5 mg/mL (≈ 180 mM). For the same compound, the solubility at 72 h in data set [1] (pure solvent 111, 25 °C, solvent 111, Tables S-13 to S-15, read-out: Experimental solubility) is 32.5 mg/mL (≈ 180 mM); in data set [1] (setting [11]) it was 32.5 mg/mL (≈ 180 mM); in data set [1] (setting [12]), 61.9 mg/mL (≈ 344 mM); in data set [1] (setting [13]), 34 mg/mL (≈ 189 mM); in data set [1] (setting [14]), 12 mg/mL (≈ 66.6 mM); in data set [1] (setting [15]), 44.5 mg/mL (≈ 247 mM). The solubility at 72 h in data set [1] (pure solvent 303, 25 °C, solvent 303, Tables S-1 to S-3, read-out: Solubility) came to 17.2 mg/mL (≈ 95.5 mM); in data set [1] (setting [16]) it was 33.5 mg/mL (≈ 186 mM); in data set [1] (setting [17]), 33.4 mg/mL (≈ 185 mM); in data set [1] (setting [18]), 11.1 mg/mL (≈ 61.6 mM); in data set [1] (setting [19]), 42 mg/mL (≈ 233 mM); in data set [1] (setting [20]), 32.5 mg/mL (≈ 180 mM). For the same compound, the solubility at 72 h came to 98.9 mg/mL (≈ 549 mM) in data set [1] (setting [21]) and 27.4 mg/mL (≈ 152 mM) in data set [1] (setting [22]). Moreover, in “physchem” (72 h), the “Increase in the solubility compared to pure 100” value turned out to be 20%. The “Increase of solubility in the water/101 mixture compared to the solubility in water” value in “physchem” (72 h) was 140 fold. Moreover, the “Increase of solubility in EGMME with respect to 101” value in data set [1] came to 21%.
A word on the Solubility: it is the dissolved amount per volume that the medium holds. Consider `O=C(O)/C=C/c1ccc(O)cc1` [Coumaric acid, coumaric acid], for which the solubility at 72 h turned out to be 203 mg/mL (≈ 1240 mM) in “physchem”; 0.4 mg/mL (≈ 2.44 mM) in “physchem” (water); 91.3 mg/mL (≈ 556 mM) in data set [1] (setting [3]); 103 mg/mL (≈ 627 mM) in data set [1] (setting [4]); 19.6 mg/mL (≈ 119 mM) in data set [1] (pure solvent 3F00, 25 °C, solvent 3F00, 298 K, read-out: Solubility); 17.2 mg/mL (≈ 105 mM) in data set [1] (setting [5]). Further, the solubility at 72 h stood at 2 mg/mL (≈ 12.2 mM) in data set [1] (pure solvent 3F03F, 25 °C, solvent 3F03F, 298 K, read-out: Solubility); 2.7 mg/mL (≈ 16.4 mM) in data set [1] (pure solvent 3F03F, 25 °C, solvent 3F03F, Tables S-1 to S-3, read-out: Solubility); 112 mg/mL (≈ 685 mM) in data set [1] (setting [6]); 85.7 mg/mL (≈ 522 mM) in data set [1] (setting [7]); 141 mg/mL (≈ 861 mM) in data set [1] (setting [8]); 142 mg/mL (≈ 863 mM) in data set [1] (pure solvent 100, 25 °C, solvent 100, Tables S-13 to S-15, read-out: Experimental solubility). In addition, the solubility at 72 h in data set [1] (pure solvent 101, 25 °C, solvent 101, 298 K, read-out: Solubility) is 176 mg/mL (≈ 1070 mM); in data set [1] (setting [9]), 176 mg/mL (≈ 1070 mM); in data set [1] (pure solvent 101, 25 °C, solvent 101, Tables S-13 to S-15, read-out: Experimental solubility), 177 mg/mL (≈ 1080 mM); in data set [1] (setting [10]) it was 110 mg/mL (≈ 668 mM); in data set [1] (setting [11]), 109 mg/mL (≈ 664 mM); in data set [1] (setting [12]), 137 mg/mL (≈ 832 mM). For the same compound, the solubility at 72 h in data set [1] (setting [13]) stood at 122 mg/mL (≈ 743 mM); in data set [1] (setting [14]), 120 mg/mL (≈ 731 mM); in data set [1] (setting [15]), 113 mg/mL (≈ 687 mM); in data set [1] (pure solvent 303, 25 °C, solvent 303, 298 K, read-out: Solubility) it was 74.6 mg/mL (≈ 454 mM); in data set [1] (setting [16]) it was 95.1 mg/mL (≈ 579 mM); in data set [1] (setting [17]), 93.1 mg/mL (≈ 567 mM). In addition, the solubility at 72 h was found to be 49.3 mg/mL (≈ 300 mM) in data set [1] (setting [18]); 103 mg/mL (≈ 627 mM) in data set [1] (setting [19]); 161 mg/mL (≈ 980 mM) in data set [1] (setting [20]); 256 mg/mL (≈ 1560 mM) in data set [1] (setting [21]); 91.1 mg/mL (≈ 555 mM) in data set [1] (setting [22]). For the same compound, in “physchem” (72 h), the “Increase of solubility in the water/101 mixture compared to the solubility in water” value was found to be 500 fold. For the same compound, in data set [1], the “Increase of solubility in EGMME with respect to 101” value is 45%. In data set [1] (solvent EG (ethylene glycol), 298 K), the Solubility was 102 mg/mL (≈ 621 mM).
Take `OCC(O)CO` [glycerol]: in data set [2], the Viscosity is 1200 cP.

Source of the values: article PMC12175220, “Eco-Friendly Solvents for Bioactives: Solubilization of Hydroxycinnamic Acids in Glycerol-Derived Ethers” (ACS Sustainable Chemistry & Engineering, 2025).
